What all share (experiment): inhibition of tumour cell growth, NCI panel, 48 h
The subject of assay [1] is A498 renal.
Assay [2] has as its system SK-MEL-28 melanoma.
For assay [3], the system named is CAKI-1 renal.
Assay [4] concerns SNB-19 CNS.
Assay [5] deals with SF-295 CNS.
Assay [6] concerns MOLT-4 leukemia.
Assay [7] relates to CCRF-CEM leukemia.
Assay [8] concerns NCI-H522 lung.
In assay [9] the test system is SNB-75 CNS.
Assay [10] deals with M14 melanoma.

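Cultured in 96-well plates, cells were exposed to test compound for 48 hours across five concentrations. Here, GI50 denotes the concentration required for 50% inhibition of growth. TGI: total growth inhibition.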 Where only a bound is given, the exact number is not on record here.

As to `CCCNc1ncnc2[nH]ncc12`, the TGI in assay [1], in assay [2], in assay [3], in assay [4], in assay [5] and in [6] was > 100 µM in each case. In addition, the TGI in assay [7], in [8], in assay [9] and in assay [10] was > 100 µM each time.
For `CN(C)c1ccc(/C=C2\N=C(c3ccccc3)N(c3ccc4c(c3)Sc3cc(N5C(=O)/C(=C/c6ccc(N(C)C)cc6)N=C5c5ccccc5)ccc3N4)C2=O)cc1`, the TGI was 31.8 µM in assay [1]; > 100 µM in assay [2]; 37.4 µM in [3]; 31.3 µM in assay [4]; 36 µM in assay [5]; > 100 µM in assay [6]. The TGI in assay [7] was found to be 20.1 µM; in assay [9], 27.4 µM; in assay [10], 40.7 µM.
Take `CN1C(=O)C(O)CC1c1cccc(C(F)(F)F)c1` (configuration not stated): the TGI in [1], in assay [2], in [3], in assay [4], in assay [5] and in assay [6] was > 100 µM throughout. Moreover, the TGI in assay [7], in assay [8], in [9] and in assay [10] was > 100 µM each time.
For `CSc1ccc(/C=C2\N=C(c3ccccc3)N(/N=C/c3cc4cc(C)ccc4nc3Cl)C2=O)cc1`, the TGI was 43 µM in [1]; 37.6 µM in assay [2]; 45.3 µM in [3]; 43.1 µM in assay [4]; 44.7 µM in assay [5]; 37.2 µM in assay [6]. The values for the TGI in assay [7], in [9] and in assay [10] were > 100 µM, 49.2 µM and 38.4 µM, respectively.
With `COc1ccc(-c2cc(C(O)C3CCCCN3)c3ccccc3n2)cc1` (configuration not stated), the TGI in assay [1] is 25.4 µM; in [2], 5.49 µM; in assay [3] it was 18.4 µM; in [4], 28.1 µM; in assay [5], 28.4 µM; in [6] it was 13.6 µM. Moreover, the TGI amounted to 9.08 µM in assay [7], 22.4 µM in assay [8], 17.1 µM in assay [9] and 4.61 µM in [10].
Turning to `COC(=O)c1c(-c2ccc(Cl)cc2)cc2c3ccccc3n(C)c2c1C(=O)OC`, the TGI in [1], in [2], in [3], in [4], in [5] and in assay [6] was > 100 µM in each case. Besides, the TGI in [7], in assay [8] and in assay [10] was > 100 µM in each case.
As to `Cc1[nH]c(=O)[nH]c(=S)c1C(=O)Nc1cccc2cc3ccccc3cc12`, the TGI in assay [1], in assay [2], in assay [3], in [4], in assay [5] and in assay [6] was > 100 µM throughout. Further, the TGI in assay [7], in [9] and in [10] was > 100 µM each time.
Take `COc1ccc(CCN2CCc3c(C)c(C#N)c4nc5ccccc5n4c32)cc1OC`: the TGI in [1], in assay [2], in [3], in assay [4], in [5] and in [7] was > 100 µM each time. Further, the TGI is 57 µM in [8], 88.7 µM in [9] and > 100 µM in assay [10].
On to `COc1ccc(C(O)CC(O)(C(F)(F)F)C(F)(F)F)cc1` (configuration not stated), for which the TGI was 64.1 µM in [1]; > 100 µM in assay [2]; 55.1 µM in assay [3]; > 100 µM in [4]; 75.7 µM in assay [5]; > 100 µM in assay [6]. For the same compound, the TGI in assay [7] is 45.7 µM; in assay [8], > 100 µM; in assay [9], 34.3 µM; in assay [10], > 100 µM.
In the case of `O=C(/C=C/c1cccs1)c1ccccc1Cl`, the TGI in assay [1] was 24 µM; in assay [2], 38.8 µM; in [3], 23 µM; in assay [4], 28.9 µM; in assay [5] it was 36.2 µM; in assay [6] it was > 23.4 µM. Also, the TGI in assay [7] was 33.9 µM; in assay [8], 15 µM; in [9] it was 28.9 µM; in assay [10], > 55.9 µM.
`Cc1ccc(/C(O)=C/c2nc3ccc([N+](=O)[O-])cc3nc2/C=C(\O)c2ccc(C)cc2)cc1`: the TGI was > 100 µM in [1]; > 100 µM in [2]; > 100 µM in assay [3]; > 77.1 µM in assay [4]; > 100 µM in assay [5]; > 100 µM in assay [6]. Besides, the TGI is > 100 µM in assay [7], > 100 µM in assay [8], 36.8 µM in [9] and > 100 µM in assay [10].
`CC(C)C(=O)Oc1cc2c(=O)oc3c(OC(=O)C(C)C)c(OC(=O)C(C)C)cc4c(=O)oc(c1OC(=O)C(C)C)c2c34`: the TGI in [1], in assay [2], in assay [3], in assay [4], in [5] and in assay [6] was > 100 µM in each case. In addition, the TGI in assay [7], in assay [8], in [9] and in assay [10] was > 100 µM throughout.
Regarding `Cn1c2ccccc2n2c3ncccc3c(=S)c(C#N)c12`, the TGI in assay [1], in [2], in [3], in assay [4], in assay [5] and in assay [6] was > 100 µM each time. Further, the TGI in assay [7], in assay [8], in assay [9] and in [10] was > 100 µM throughout.
Regarding `CC(C)(C)OC(=O)n1cc(C2CN(O)C(=O)C23CCC(=O)N3Cc2ccccc2)c2ccccc21` (configuration not stated), the TGI in assay [1] is 74.8 µM; in [3] it was > 100 µM; in assay [4] it was > 100 µM; in assay [5], > 100 µM; in assay [6] it was > 100 µM; in [7], > 100 µM. Also, the TGI is 31.7 µM in assay [8], > 100 µM in assay [9] and > 100 µM in [10].
Turning to `O=C1c2ccccc2-c2[nH]c3cn[nH]c(=O)c3c21`, the TGI in [1], in [3], in assay [4], in [5], in assay [6] and in assay [7] was > 100 µM in each case. Moreover, the TGI in assay [8] was 50.9 µM; in assay [9], > 100 µM; in assay [10], > 100 µM.
As for `C/C(=N\Nc1nc2ccccc2[nH]1)c1cc2ccccc2cn1`, the TGI in assay [1] was 0.665 µM; in assay [2], 0.429 µM; in assay [3] it was 1.32 µM; in [4], 1.64 µM; in assay [6] it was > 100 µM; in assay [7], 5.65 µM. The TGI in assay [8] worked out at 1.13 µM; in assay [9] it was 1.56 µM; in assay [10] it was 0.357 µM.
On to `Cc1ccc(S(=O)(=O)N(CC(O)COc2ccccc2)c2ccc(F)cc2F)cc1` (configuration not stated), for which the TGI in assay [1] is 28.7 µM; in assay [2], 29.7 µM; in assay [3], 29.9 µM; in assay [4], 41.9 µM; in assay [5], 34.4 µM; in assay [6], 94.2 µM. Moreover, the results for the TGI in [7], in assay [9] and in assay [10] were 53.8 µM, 29.4 µM and 34.1 µM, respectively.
For the compound `CO[C@]1(CN2CCN3CCCC[C@@H]3C2)/C=C/C[C@H](C)[C@@H](C)S(=O)(=O)NC(=O)c2ccc3c(c2)N(C[C@@H]2CC[C@H]21)C[C@@]1(CCCc2cc(Cl)ccc21)CO3`, the GI50 in assay [1] is 2.68 µM; in [2], 1.86 µM; in [3], 1.79 µM; in [4], 2.02 µM; in assay [6], 0.198 µM; in assay [7], 1.44 µM. Further, the GI50 in assay [8] is 0.37 µM; in assay [9], 0.371 µM. Moreover, the TGI in [1] amounted to 6.48 µM; in [2], 3.44 µM; in assay [3], 4.24 µM; in assay [4] it was 4.62 µM; in assay [6], 2.1 µM; in [7] it was 13.3 µM. For the same compound, the TGI in assay [8] was determined as 1.93 µM; in assay [9] it was 2.04 µM.
For `CC(=O)O[C@H]1CC[C@@]2(C)[C@H](CC[C@@H]3[C@@H]2CC[C@]2(C)[C@@H](c4ccc(=O)oc4)C[C@H]4O[C@]342)C1`, the TGI in assay [1] is 4.96 µM; in assay [2], 20.9 µM; in assay [3], 1.31 µM; in assay [4], 9.36 µM; in assay [5], 2.97 µM; in assay [6] it was 0.556 µM. Also, the TGI was determined as 1.52 µM in [7], 1.23 µM in assay [8] and 3.45 µM in assay [9].
Turning to `Cc1nc2ccc(Cl)cc2c2c1CCN2c1ccccc1`, the TGI in [1] amounted to 34.3 µM; in [2], 28.5 µM; in assay [3], 28.1 µM; in assay [4], 78.5 µM; in [5], 20.1 µM; in assay [6], 28.5 µM. For the same compound, the values for the TGI in assay [7], in assay [8] and in assay [9] were 23.1 µM, 28.1 µM and > 100 µM, respectively.
On to `O=C1C=CC(=O)c2c(Cl)ccc(O)c21`, for which the TGI in [1] is > 100 µM; in assay [2] it was 33 µM; in assay [3] it was 16.1 µM; in [4], > 100 µM; in [5] it was > 57 µM; in assay [6], 23.2 µM. Moreover, the figures for the TGI in assay [7], in [8] and in assay [9] were > 100 µM, 26.8 µM and > 63.4 µM, respectively.
On to `Nc1nc(Cl)cc(NCC2(O)CCCC2)n1`, for which the TGI in [1], in assay [2], in assay [3], in [5], in assay [6] and in assay [7] was > 100 µM each time. Moreover, the TGI in assay [8] and in [9] was > 100 µM in each case.
Regarding `c1ccc(-c2nnn(CCN3CCCCC3)n2)cc1`, the TGI in assay [1], in assay [2], in [3], in assay [4], in assay [5] and in [7] was > 100 µM in each case. Further, the TGI in [8], in [9] and in assay [10] was > 100 µM throughout.
For `COC(=O)c1c(C)nc(C)c(NO)c1-c1ccccc1C(F)(F)F`, the TGI was > 100 µM in assay [1]; 38.1 µM in [2]; 43.3 µM in assay [3]; > 100 µM in assay [4]; > 100 µM in [5]; > 100 µM in assay [6]. Besides, the TGI in assay [7] is > 100 µM; in assay [8], 33.1 µM; in [10] it was 39.5 µM.
`CCOC(=O)c1cn(C)c(=S)n2c1nc1ccccc12`: the TGI in assay [1], in assay [2], in assay [3], in assay [4], in assay [5] and in assay [6] was > 100 µM each time. Moreover, the TGI in [7], in assay [9] and in assay [10] was > 100 µM in each case.
With `O=[N+]([O-])c1ccc(C(Nc2ccccc2)c2ccc3cccnc3c2O)cc1` (configuration not stated), the TGI in [1] was > 100 µM; in assay [2] it was > 100 µM; in assay [3], > 62.3 µM; in assay [4], > 100 µM; in [5] it was > 100 µM; in assay [7], > 22.2 µM. Also, the TGI in [8] was 28.6 µM; in assay [9], 55.5 µM; in assay [10] it was > 74.4 µM.
In the case of `Cc1csc(NC(=NCCN2CCOCC2)Nc2nc(C)cs2)n1`, the TGI in [1], in assay [2], in assay [3], in assay [4], in assay [5] and in assay [6] was > 100 µM in each case. In addition, the TGI in assay [7], in assay [8] and in assay [9] was > 100 µM in each case.
